Test results from US10369340B2, “Device and method for sustained release of low water solubility therapeutic agent in solubilizer” (N[…], INC., priority 2013, dated 2019).

Tests used:
[1] = solubility of testosterone in water and in ethanol; format: physicochemical; conditions: ethanol relative to water
Text: During use, IDD 100 can be used to administer API 200 by inserting IDD 100 into an area of a human anatomy, including for example, subcutaneously. With IDD 100 inserted into the desired anatomical area, portions of solubilizer 210 (with dissolved API 200) that are small enough to pass through channeled member 130 can be released over time into the area of the human anatomy or for systemic circulation. In certain embodiments, the solubility enhancement of API 200 and solubilizer 210 can range from approximately 2×, 3×, 4×, 5×, 6×, 7×, 8×, 9×, 10×, 11×, 12×, 13×, 14×, 15×, 16×, 17×, 18×, 19×, 20×, 21×, 22×, 23×, 24×, 25×, 26×, 27×, 28×, 29×, 30× or higher. In particular embodiments, the solubility enhancement can be up to 1000× and higher.

[2] = cited from earlier work

Question: Which “solubility enhancement (increase, ethanol vs water)” value [1] does the source give for C[C@]12CC[C@H]3[C@@H](CCC4=CC(=O)CC[C@@]43C)[C@@H]1CC[C@@H]2O [testosterone] here?
Answer: The value was 20,000 ×.

Question: What about the solubility in ethanol ([2]; ethanol) of the same compound?
Answer: Its solubility in ethanol is “approximately 750 mg/ml”.

Question: And the native water solubility ([2]; water)?
Answer: Its native water solubility is 35 µg/mL.
